According to patent US4501748A, “1,4-Dihydropyridine derivatives” (Kyowa Hakko Kogyo Co., Ltd., priority 1983, dated 1985):
Counter-ions that a name gives are not always drawn.

Legend:
mice = assay: Acute toxicity, oral administration to mice (survival rate 72 hours after administration); type: in vivo, mice (ddY type; settings: mice ddY male, hydrochloride, 4320 min
Method: (§1) Drugs were compulsorily orally administered to mice (ddY type, body weight of 20 to 24 g, male) and the survival rate 72 hours after the administration was studied. A suspension of each of the drugs in water having added a small quantity of Tween 80 thereto was orally given at the dose of 0.1 ml/10 g mouse body weight, using a gastric tube.

[1] = tested on: Spontaneously hypertensive rat (SHR); assay: Hypotensive effect: oral administration to SHR (no anesthesia), plethysmographic tail method; type: in vivo, Okamoto Strain, male)
Method: (2) Oral Administration to SHR (no anesthesia)
Change in systolic blood pressure when drugs were orally administered to spontaneously hypertensive rat (SHR) (Okamoto Strain, aging 15 to 26 weeks, male) was measured by the plethysmographic tail method (Ueda Seisakusho, USM-105R).
Drugs were compulsorily orally administered at the dose of 0.5 ml/100 g body weight of the rat in the form of a suspension in 0.3% carboxymethyl cellulose, using a gastric tube.

[2] = tested on: Spontaneously hypertensive rat (SHR); assay: Hypotensive effect: intravenous administration to SHR (no anesthesia); type: in vivo, Okamoto strain, male); settings: 5 animals
Method: (1.) Intravenous Administration to SHR (no anesthesia)
Spontaneously hypertensive rat (SHR) (Okamoto strain, aging 20 to 30 weeks, male) were anesthetized with sodium thiopental (50 mg/kg, ip). A cannula for measuring blood pressure was inserted into the descending aorta from the right femoral artery and a cannula for intravenous administration was inserted into the left carotid vein, and these cannulas were fixed on the […], respectively. Change in blood pressure by intravenous administration of each of drugs were measured next day without any anesthesia. As the drugs, a solution of each of the drugs in polyethylene glycol 400 was intravenously administered at the dose of 0.1 ml/100 g body weight of the rat.

[3] = Acute toxicity, oral administration to mice (survival rate 72 hours after administration); type: in vivo, mice (ddY type; settings: mouse, in vivo, mice ddY male
Method: as §1

[4] = Hypotensive effect (general statement); type: in vivo; settings: among the (±)-α-form
[5] = LD50 in the oral administration in male rats; settings: rat, in vivo

For `COC(=O)C1=C(C)NC(C)=C(C(=O)OC2CCCN(Cc3ccccc3)C2)C1c1cccc([N+](=O)[O-])c1` (single isomer, unassigned) [(-)-α-form, (-)-α-2,6-dimethyl-4-(3-nitrophenyl)-1,4-dihydropyridine-3,5-dicarboxylic acid-3-(1-benzyl-3-piperidyl)ester-5-methyl ester hydrochloride], the “Acute Toxicity LD50” value (mice) was 918 mg/kg, the “Maximum Decrease in Systolic Blood Pressure” value ([1]; 3 mg/kg p.o., 4 animals) was 22.5 ± 9.6 mmHg and the “Maximum Decrease in Systolic Blood Pressure” value ([1]; 10 mg/kg p.o., 4 animals) was 30.0 ± 5.3 mmHg. The “Maximum Decrease in Mean Blood Pressure” value ([2]; 10 μg/kg i.v., hydrochloride) was 23.4 ± 7.9 mmHg and the “Maximum Decrease in Mean Blood Pressure” value ([2]; 100 μg/kg i.v.) was 27.3 ± 6.1 mmHg.
For `COC(=O)C1=C(C)NC(C)=C(C(=O)OC2CCCN(Cc3ccccc3)C2)C1c1cccc([N+](=O)[O-])c1` (racemic) [(±)-α-form, (±)-2,6-dimethyl-4-(3-nitrophenyl)-1,4-dihydropyridine-3,5-dicarboxylicacid-3-(1-benzyl-3-piperidyl)ester-5-methyl ester], the LD50 at 72 h [3] was 218 mg/kg, the “Maximum Decrease in Systolic Blood Pressure” value ([1]; 1 mg/kg p.o., 8 animals) was 35.6 ± 6.3 mmHg and the “Maximum Decrease in Mean Blood Pressure” value ([2]; 1 μg/kg i.v.) was 23.1 ± 6.4 mmHg. For the same compound, the “Maximum Decrease in Mean Blood Pressure” value ([2]; 10 μg/kg i.v.) was 45.6 ± 6.5 mmHg.
With `COC(=O)C1=C(C)NC(C)=C(C(=O)OC2CCCN(Cc3ccccc3)C2)C1c1cccc([N+](=O)[O-])c1` (single isomer, unassigned) [(+)-α-form, (+)-α-2,6-dimethyl-4-(3-nitrophenyl)-1,4-dihydropyridine-3,5-dicarboxylic acid-3-(1-benzyl-3-piperidyl)ester-5-methyl ester hydrochloride] the “Acute Toxicity LD50” value (mice) was 95 mg/kg, the “Maximum Decrease in Systolic Blood Pressure” value ([1]; 1 mg/kg p.o., 8 animals) was 56.3 ± 13.0 mmHg and the hypotensive effect [4] was “excellent hypotensive effect”. For the same compound, the LD50 [5] was 95 mg/kg, the “Maximum Decrease in Mean Blood Pressure” value ([2]; 1 μg/kg i.v.) was 42.2 ± 11.5 mmHg and the “Maximum Decrease in Mean Blood Pressure” value ([2]; 10 μg/kg i.v., hydrochloride) was 67.4 ± 4.7 mmHg.
